Assay results from ChEMBL document CHEMBL5518185, “Design, synthesis and antitumor activity of 4-arylamine substituted pyrimidine derivatives as noncovalent EGFR inhibitors overcoming C797S mutation” (Eur J Med Chem, 2024).

Each molecule was assayed on NCI-H1975 (assay: Antiproliferative activity against human NCI-H1975 cells assessed as inhibition of cell growth measured after 72 hrs by MTT assay). Settings: NCI-H1975, 72 h.
Type: functional, cell-based

| IC50 [µM] | Structure (SMILES) |
| --- | --- |
| 0.879 | O=C(NO)c1ccsc1Nc1nc(Nc2ccc(CN3CCOCC3)cc2)ncc1Br |
| 1.2 | O=C(NO)c1sccc1Nc1nc(Nc2cccc(N3CCOCC3)c2)ncc1Cl |
| 0.347 | Cc1cnc(Nc2ccc(N3CCOCC3)cc2)nc1Nc1sccc1C(=O)NO |

What follows are molecules tested on Epidermal growth factor receptor (Homo sapiens), P00533 [UNDEFINED MUTATION]. Settings: dose 30.0 nM.
Sequence of Epidermal growth factor receptor (Homo sapiens), P00533 [UNDEFINED MUTATION] (P00533 whole entry, looked up, change not shown): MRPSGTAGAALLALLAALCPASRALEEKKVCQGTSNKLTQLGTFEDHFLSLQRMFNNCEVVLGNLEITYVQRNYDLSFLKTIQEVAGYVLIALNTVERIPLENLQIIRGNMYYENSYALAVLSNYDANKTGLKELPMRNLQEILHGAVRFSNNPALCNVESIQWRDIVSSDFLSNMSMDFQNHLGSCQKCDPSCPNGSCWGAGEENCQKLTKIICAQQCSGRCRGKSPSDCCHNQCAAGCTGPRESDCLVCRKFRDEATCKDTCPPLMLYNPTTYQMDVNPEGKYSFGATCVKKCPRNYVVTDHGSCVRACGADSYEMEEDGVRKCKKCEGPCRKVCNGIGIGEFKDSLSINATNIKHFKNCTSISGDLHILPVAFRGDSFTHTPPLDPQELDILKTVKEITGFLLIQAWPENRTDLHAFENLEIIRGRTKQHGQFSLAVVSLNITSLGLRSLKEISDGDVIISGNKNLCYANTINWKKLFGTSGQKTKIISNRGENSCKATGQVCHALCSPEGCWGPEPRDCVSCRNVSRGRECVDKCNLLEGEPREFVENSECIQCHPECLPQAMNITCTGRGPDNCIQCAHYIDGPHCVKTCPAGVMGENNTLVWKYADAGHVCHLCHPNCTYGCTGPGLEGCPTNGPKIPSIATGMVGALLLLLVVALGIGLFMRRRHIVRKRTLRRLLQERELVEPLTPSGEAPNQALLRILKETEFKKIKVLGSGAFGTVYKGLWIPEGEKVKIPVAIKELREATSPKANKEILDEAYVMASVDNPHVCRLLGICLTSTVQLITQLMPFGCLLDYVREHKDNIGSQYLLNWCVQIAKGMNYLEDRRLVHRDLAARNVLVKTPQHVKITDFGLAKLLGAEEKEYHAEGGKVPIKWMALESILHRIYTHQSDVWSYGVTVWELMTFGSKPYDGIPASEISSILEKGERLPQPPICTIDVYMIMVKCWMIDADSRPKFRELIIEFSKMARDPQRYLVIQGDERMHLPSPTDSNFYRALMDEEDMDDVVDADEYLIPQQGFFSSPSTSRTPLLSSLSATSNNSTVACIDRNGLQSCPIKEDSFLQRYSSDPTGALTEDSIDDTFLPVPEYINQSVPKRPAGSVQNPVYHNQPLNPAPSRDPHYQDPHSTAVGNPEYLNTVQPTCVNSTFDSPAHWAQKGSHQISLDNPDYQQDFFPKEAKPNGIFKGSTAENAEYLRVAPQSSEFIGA

| inhibition [%] | Structure (SMILES) |
| --- | --- |
| 38.6 | O=C(NO)c1ccsc1Nc1nc(Nc2ccc(CN3CCOCC3)cc2)ncc1Br |
| 15.8 | O=C(NO)c1sccc1Nc1nc(Nc2cccc(N3CCOCC3)c2)ncc1Cl |
| 21.9 | Cc1cnc(Nc2ccc(N3CCOCC3)cc2)nc1Nc1sccc1C(=O)NO |

These molecules were tested on HCC827 (assay: Antiproliferative activity against human HCC827 cells assessed as inhibition of cell growth measured after 72 hrs by MTT assay). Settings: HCC827, 72 h.
Type: functional, cell-based

| IC50 [µM] | Structure (SMILES) |
| --- | --- |
| 0.048 | O=C(NO)c1ccsc1Nc1nc(Nc2ccc(CN3CCOCC3)cc2)ncc1Br |
| 3.25 | O=C(NO)c1sccc1Nc1nc(Nc2cccc(N3CCOCC3)c2)ncc1Cl |
| 0.23 | Cc1cnc(Nc2ccc(N3CCOCC3)cc2)nc1Nc1sccc1C(=O)NO |

Each molecule was assayed on Epidermal growth factor receptor (Homo sapiens), P00533 [UNDEFINED MUTATION]. Settings: dose 100.0 nM.

| inhibition [%] | Structure (SMILES) |
| --- | --- |
| 62.5 | O=C(NO)c1ccsc1Nc1nc(Nc2ccc(CN3CCOCC3)cc2)ncc1Br |
| 45 | O=C(NO)c1sccc1Nc1nc(Nc2cccc(N3CCOCC3)c2)ncc1Cl |
| 57.2 | Cc1cnc(Nc2ccc(N3CCOCC3)cc2)nc1Nc1sccc1C(=O)NO |

What follows are molecules tested on A549 (assay: Antiproliferative activity against human A549 cells assessed as inhibition of cell growth measured after 72 hrs by MTT assay). Settings: A549, 72 h.
Type: functional, cell-based

| IC50 [µM] | Structure (SMILES) |
| --- | --- |
| 0.331 | O=C(NO)c1ccsc1Nc1nc(Nc2ccc(CN3CCOCC3)cc2)ncc1Br |
| 11.2 | O=C(NO)c1sccc1Nc1nc(Nc2cccc(N3CCOCC3)c2)ncc1Cl |
| 0.114 | Cc1cnc(Nc2ccc(N3CCOCC3)cc2)nc1Nc1sccc1C(=O)NO |
